Laboratory results as given in US5716797A, “Stable two-part reagent for the measurement of creatine kinase activity” (Wako Pure Chemical Industries, Ltd., priority 1995, dated 1998).
Values joined by “and” are separate entries in the source; they are usually repeats but may differ in a detail not shown here. Identical values can stand only once. Like-named read-outs stand apart in the source and are kept apart here.

Test system: creatine kinase (CK) in human serum
Assay: CK activity measured with enzyme solutions containing SH compounds as CK reactivator, fresh and after 1 month of storage (Example 1 / Comparative Example 1)
Format: biochemical
Settings: for CK activity, relative value: NAC just after preparation = 100%
Experimental: The resulting solution was adjusted to pH 6.7 with sodium hydroxide and stored at a predetermined temperature for a predetermined period. The thus obtained solution were used as enzyme solutions.
Five fresh human serum samples were used.
To 8 μl of each sample was added 320 μl of each enzyme solution, followed by preincubation for 5 minutes. Then, 80 μl of the substrate solution was added to initiate the reaction and the change of absorbance per minute was measured for 3 minutes from 2 minutes after the addition of the substrate solution. The CK activity value was calculated from the molecular extinction coefficient of the NADPH produced.
As a measuring apparatus, an Autoanalyzer Hitachi Model 7150 was used, and the measurement was carried out at 37° C. by use of dual wavelength (λ1 =405 nm, λ2 =340 nm).
Enzyme solutions were prepared in the same manner as in Example 1 by use of the same reagents as in Example 1 except for using a predetermined concentration(s) of one or two SH compounds properly selected from the above-mentioned CK reactivators, in place of the CK reactivator(s) used in Example 1.
CK activity was measured in the same manner as in Example 1.

[1] = Sample 1, enzyme solution just after preparation, TG 100 mM, 2ME 26 mM, 2MES 26 mM, NAC 26 mM
[2] = Sample 2, enzyme solution just after preparation, TG 100 mM, 2ME 26 mM, 2MES 26 mM, NAC 26 mM
[3] = Sample 2, enzyme solution stored at 10° C. for 1 month, TG 100, 2ME 26, 2MES 26, NAC 26, L-cysteine 6.5, GSH 12, TDG 5, DTT 6.5 mM
[4] = Sample 2, enzyme solution stored at 20° C. for 1 month, TG 100, 2ME 26, 2MES 26, NAC 26, L-cysteine 6.5, GSH 12, TDG 5, DTT 6.5 mM
[5] = Sample 3, enzyme solution just after preparation, TG 100 mM, 2ME 26 mM, 2MES 26 mM, NAC 26 mM
[6] = Sample 3, enzyme solution stored at 10° C. for 1 month, TG 100, 2ME 26, 2MES 26, NAC 26, L-cysteine 6.5, GSH 12, TDG 5, DTT 6.5 mM
[7] = Sample 3, enzyme solution stored at 20° C. for 1 month, TG 100, 2ME 26, 2MES 26, NAC 26, L-cysteine 6.5, GSH 12, TDG 5, DTT 6.5 mM
[8] = Sample 4, enzyme solution just after preparation, TG 100 mM, 2ME 26 mM, 2MES 26 mM, NAC 26 mM
[9] = Sample 4, enzyme solution stored at 10° C. for 1 month, TG 100, 2ME 26, 2MES 26, NAC 26, L-cysteine 6.5, GSH 12, TDG 5, DTT 6.5 mM
[10] = Sample 4, enzyme solution stored at 20° C. for 1 month, TG 100, 2ME 26, 2MES 26, NAC 26, L-cysteine 6.5, GSH 12, TDG 5, DTT 6.5 mM
[11] = Sample 5, enzyme solution just after preparation, TG 100 mM, 2ME 26 mM, 2MES 26 mM, NAC 26 mM
[12] = Sample 5, enzyme solution stored at 10° C. for 1 month, TG 100, 2ME 26, 2MES 26, NAC 26, L-cysteine 6.5, GSH 12, TDG 5, DTT 6.5 mM
[13] = Sample 5, enzyme solution stored at 20° C. for 1 month, TG 100, 2ME 26, 2MES 26, NAC 26, L-cysteine 6.5, GSH 12, TDG 5, DTT 6.5 mM
[14] = average of 5 samples, enzyme solution just after preparation, TG 100 mM, 2ME 26 mM, 2MES 26 mM, NAC 26 mM
[15] = average of 5 samples, enzyme solution stored at 10° C. for 1 month, TG 100, 2ME 26, 2MES 26, NAC 26, L-cysteine 6.5, GSH 12, TDG 5, DTT 6.5 mM
[16] = average of 5 samples, enzyme solution stored at 20° C. for 1 month, TG 100, 2ME 26, 2MES 26, NAC 26, L-cysteine 6.5, GSH 12, TDG 5, DTT 6.5 mM
[17] = enzyme solution just after preparation
[18] = enzyme solution stored at 10° C. for 1 month
[19] = enzyme solution stored at 20° C. for 1 month
[20] = Sample 1, enzyme solution stored at 20° C. for 1 month, TG 100, 2ME 26, 2MES 26, NAC 26, L-cysteine 6.5, GSH 12, TDG 5, DTT 6.5 mM
[21] = Sample 1, enzyme solution stored at 10° C. for 1 month, TG 100, 2ME 26, 2MES 26, NAC 26, L-cysteine 6.5, GSH 12, TDG 5, DTT 6.5 mM

| SMILES | retaining CK-reactivating ability for a long period of time in an aqueous solution | CK activity value [1] [IU/l] | CK activity value [2] [IU/l] | CK activity value [3] [IU/l] | CK activity value [4] [IU/l] | CK activity value [5] [IU/l] | CK activity value [6] [IU/l] | CK activity value [7] [IU/l] | CK activity value [8] [IU/l] | CK activity value [9] [IU/l] | CK activity value [10] [IU/l] | CK activity value [11] [IU/l] | CK activity value [12] [IU/l] | CK activity value [13] [IU/l] | CK activity value, Average [14] [IU/l] | CK activity value, Average [15] [IU/l] | CK activity value, Average [16] [IU/l] | CK activity, relative value [18] [%] | CK activity, relative value [19] [%] | CK activity value [20] [IU/l] | also measured |
| --- | --- | --- | --- | --- | --- | --- | --- | --- | --- | --- | --- | --- | --- | --- | --- | --- | --- | --- | --- | --- | --- |
| OCCS [2ME, 2-mercaptoethanol] | capable of retaining CK-reactivating ability for a long period of time | 186 | 554 | 559 | 559 | 151 | 155 | 155 | 58 | 59 | 58 | 89 | 89 | 89 | 208 | 210 | 209 | 102.8 | 102.4 | – | CK activity, relative value [17]: 101.9% |
| O=S(=O)(O)CCS [2MES, 2-mercaptoethanesulfonic acid] | capable of retaining CK-reactivating ability for a long period of time | 184 | 553 | 548 | 542 | 151 | 147 | 148 | 58 | 55 | 55 | 88 | 85 | 87 | 207 | 204 | 203 | 99.9 | 96.3 | 181 | CK activity value: 184 IU/l; CK activity, relative value [17]: 101.4% |
| N[C@@H](CCC(=O)N[C@@H](CS)C(=O)NCC(=O)O)C(=O)O [GSH, reduced-form glutathione] | – | – | – | – | – | – | – | – | – | – | – | – | – | – | – | – | – | 94.1 | 81.9 | – | CK activity value, Average: 192 IU/l and 167 IU/l |
| N[C@@H](CS)C(=O)O [L-cysteine] | – | – | – | 437 | 175 | – | 110 | 33 | – | 42 | 12 | – | 63 | 19 | – | 158 | 58 | 77.5 | 28.4 | 52 | CK activity value [21]: 140 IU/l |
| O.O.OC[C@H]1O[C@@H](S)[C@H](O)[C@@H](O)[C@@H]1O.[Na].[Na] [TDG, 1-thio-β-D-glucose disodium salt dihydrate] | incapable of retaining CK-reactivating ability in a solution for a long period of time | – | – | 3 | 4 | – | 1 | 2 | – | 0 | 0 | – | 0 | 0 | – | 1 | 1 | 0.4 | 0.6 | 0 | CK activity value [21]: 0 IU/l |
